Patent US7300950B2, “Pyrazole derivatives, their preparation and their use in pharmaceuticals” (Aventis Pharma Deutschland GmbH, priority 1997, dated 2007)

Tests used:
[1] = target: T1, soluble guanylate cyclase (sGC) isolated from bovine lung (Bos taurus, UniProt P16068+P19687); experiment: Activation of the soluble guanylate cyclase (cGMP enzyme immunoassay); type: biochemical; conditions: n-fold stimulation of basal enzyme activity = [cGMP]test substance/[cGMP]control
T1 construct: The sGC which was employed had been isolated from bovine lung; from tissue; host or cells: bovine lung
T1 sequence (P16068 1-619): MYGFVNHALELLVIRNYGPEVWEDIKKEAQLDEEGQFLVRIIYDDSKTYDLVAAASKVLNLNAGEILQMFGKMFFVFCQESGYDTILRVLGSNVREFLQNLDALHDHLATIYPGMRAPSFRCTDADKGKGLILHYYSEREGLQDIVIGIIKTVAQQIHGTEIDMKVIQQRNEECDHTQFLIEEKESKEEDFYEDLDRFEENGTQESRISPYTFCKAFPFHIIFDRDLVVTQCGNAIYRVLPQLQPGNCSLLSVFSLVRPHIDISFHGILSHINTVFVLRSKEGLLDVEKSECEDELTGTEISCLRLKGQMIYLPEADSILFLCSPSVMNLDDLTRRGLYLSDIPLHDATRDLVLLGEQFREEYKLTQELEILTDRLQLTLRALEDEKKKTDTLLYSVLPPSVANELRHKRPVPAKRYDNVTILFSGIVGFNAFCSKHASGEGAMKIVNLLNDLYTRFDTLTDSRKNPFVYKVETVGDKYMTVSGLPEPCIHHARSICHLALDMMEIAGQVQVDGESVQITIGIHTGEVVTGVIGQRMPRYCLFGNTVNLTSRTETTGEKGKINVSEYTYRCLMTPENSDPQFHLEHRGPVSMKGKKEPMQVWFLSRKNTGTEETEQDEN
T1 sequence (P19687 1-691): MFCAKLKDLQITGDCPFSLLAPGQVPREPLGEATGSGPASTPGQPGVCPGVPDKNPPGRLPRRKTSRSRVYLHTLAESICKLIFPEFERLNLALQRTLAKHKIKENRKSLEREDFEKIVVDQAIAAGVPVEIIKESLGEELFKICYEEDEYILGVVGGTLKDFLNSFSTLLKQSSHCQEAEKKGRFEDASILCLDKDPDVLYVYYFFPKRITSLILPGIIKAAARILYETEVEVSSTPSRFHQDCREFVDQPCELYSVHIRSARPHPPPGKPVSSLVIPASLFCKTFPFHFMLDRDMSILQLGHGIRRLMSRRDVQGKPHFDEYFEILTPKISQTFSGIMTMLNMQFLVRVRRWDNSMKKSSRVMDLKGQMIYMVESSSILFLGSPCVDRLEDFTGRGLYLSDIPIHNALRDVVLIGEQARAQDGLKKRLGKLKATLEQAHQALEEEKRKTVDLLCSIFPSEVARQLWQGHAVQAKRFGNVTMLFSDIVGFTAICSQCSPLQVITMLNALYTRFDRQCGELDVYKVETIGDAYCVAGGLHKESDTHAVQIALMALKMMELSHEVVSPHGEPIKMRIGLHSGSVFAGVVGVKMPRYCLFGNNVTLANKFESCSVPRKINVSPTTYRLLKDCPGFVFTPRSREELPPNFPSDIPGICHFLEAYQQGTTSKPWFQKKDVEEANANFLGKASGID
Experimental: 1. Activation of the Soluble Guanylate Cyclase
The activation of the sGC, which catalyzes the conversion of GTP into cyclic guanosine monophosphate cGMP and pyrophosphate, by the compounds according to the invention was quantified with the aid of an enzyme immunoassay “EIA” from Amersham. For this purpose the substances to be tested were initially incubated with sGC in microtiter plates, and the amount of the cGMP formed was then determined.
The test solutions (100 μl per well) contained 50 mM triethanolamine “TEA” buffer (pH 7.5), 3 mM MgCl2, 3 mM reduced glutathione “GSH,” 0.1 mM GTP, 1 mM 3-isobutyl-1-methylxanthine “IBMX,” suitably diluted enzyme solution and the substance to be tested or, in the control experiments, the solvent. […] The DMSO concentration in the test solution was 5% (v/v). The reaction was initiated by addition of the sGC. The reaction mixture was incubated at 37° C. for 15 to 20 minutes and then stopped by ice-cooling and addition of the stop reagent (50 mM EDTA, pH 8.0). An aliquot of 50 μl was taken and used for determining the cGMP content using the acetylation protocol of the Amersham cGMP-EIA kit. The absorption of the samples was measured at 450 nm (reference wavelength 620 nm) in a microtiter plate reader. The cGMP concentration was determined using a standard curve which was obtained under the same test conditions. […] This is calculated using the formula: n-fold stimulation=[cGMP]test substance/[cGMP]control.

rat aorta rings = experiment: Relaxation of rat aorta (phenylephrine-precontracted aorta rings, organ bath); parameters: species or system rat (Wistar-Kyoto); conditions: concentration by which phenylephrine (1 μM) contraction is inhibited by 50% (50% relaxation)
Description: 2. Relaxation of Rat Aorta
For this test, normotensive male Wistar-Kyoto rats were sacrificed by a blow to the neck. The abdominal cavity and the thorax were opened by a medium sternotomy. The descending aorta was subsequently removed, freed of connective tissue and divided into 8 rings of a length of approximately 4 mm. The tip of a pair of tweezers was introduced into the lumen of 4 of the 8 rings. The endothelium was removed by carefully rolling the rings over the tip of the pair of tweezers. All 8 aorta rings (4 with endothelium and 4 without endothelium) were subsequently suspended in an organ bath (Schuler-Organbad; Hugo Sachs Elektronik) at a constant temperature of 37° C. for the isometric determination of the contractile tone. For 30 minutes, the rings were calibrated at a resting tension of 1 g in carbonated (95% O2; 5% CO2) Krebs-Henseleit solution (composition: Na^+ 144.0 mM; K^+ 5.9 mM; Cl^− 126.9 mM; Ca^2+ 1.6 mM; Mg^2+ 1.2 mM; H2PO4^− 1.2 mM; SO4^2− 1.2 mM; HCO3^− 25.0 mM; D-glucose 11.1 mM) of pH 7.4. […] After a 30-minute washing period, the rings were then again precontracted by addition of phenylephrine (1 μM), and the relaxing action of the test substances of the formula I was determined by administration of cumulative doses of the latter. The data were evaluated by standard methods. […]

SMILES: O=C(O)c1ccc(-c2nn(-c3cc(C(F)(F)F)cc(C(F)(F)F)c3)c3ccccc23)o1 [Example 4, 3-(5-Carboxy-2-furyl)-1-(3,5-bis(trifluoromethyl)phenyl)indazole]
- melting point: 256 to 257 °C

SMILES: CCOC(=O)c1ccc(-c2nn(-c3cc(C(F)(F)F)cc(C(F)(F)F)c3)c3ccccc23)o1 [Example 5, 3-(5-Ethoxycarbonyl-2-furyl)-1-(3,5-bis(trifluoromethyl)phenyl)indazole]
- melting point: 128 to 129 °C

SMILES: OCc1ccc(-c2nn(-c3cc(C(F)(F)F)cc(C(F)(F)F)c3)c3ccccc23)o1 [Example 6, 3-(5-Hydroxymethyl-2-furyl)-1-(3,5-bis(trifluoromethyl)phenyl)indazole]
- n-fold stimulation ([1]; concentration 10 μM): 3.3-fold
- melting point: 136 to 138 °C

SMILES: O=C(OCCO)c1ccc(-c2nn(Cc3ccccc3)c3ccccc23)o1 [Example 7, 1-Benzyl-3-(5-((2-hydroxyethoxy)carbonyl)-2-furyl)indazole]
- n-fold stimulation ([1]; concentration 100 μM): 5.5-fold

SMILES: O=C(Nc1ccccc1)c1ccc(-c2nn(Cc3ccccc3)c3ccccc23)o1 [Example 21, 1-Benzyl-3-(5-(N-phenylcarbamoyl)-2-furyl)indazole]
- n-fold stimulation ([1]; concentration 100 μM): 3-fold
- melting point: 138 to 143 °C

SMILES: O=C(Nc1ccc(Cl)cc1)c1ccc(-c2nn(Cc3ccccc3)c3ccccc23)o1 [Example 22, 1-Benzyl-3-(5-(N-(4-chlorophenyl)carbamoyl)-2-furyl)indazole]
- melting point: 202 to 205 °C

SMILES: O=C(Nc1ccc([N+](=O)[O-])cc1)c1ccc(-c2nn(Cc3ccccc3)c3ccccc23)o1 [Example 23, 1-Benzyl-3-(5-(N-(4-nitrophenyl)carbamoyl)-2-furyl)indazole]
- melting point: 204 to 208 °C

SMILES: O=C(Nc1ccc2ccccc2c1)c1ccc(-c2nn(Cc3ccccc3)c3ccccc23)o1 [Example 24, 1-Benzyl-3-(5-(N-(2-naphthyl)carbamoyl)-2-furyl)indazole]
- melting point: 167 °C

SMILES: O=C(Nc1nccs1)c1ccc(-c2nn(Cc3ccccc3)c3ccccc23)o1 [Example 25, 1-Benzyl-3-(5-(N-(2-thiazolyl)carbamoyl)-2-furyl)indazole]
- n-fold stimulation ([1]; concentration 10 μM): 2.8-fold
- melting point: 167 to 168 °C

SMILES: O=C(NOCc1ccccc1)c1ccc(-c2nn(Cc3ccccc3)c3ccccc23)o1 [Example 26, 1-Benzyl-3-(5-(N-(benzyloxy)carbamoyl)-2-furyl)indazole]
- melting point: 140 to 143 °C

SMILES: CN(C(=O)c1ccc(-c2nn(Cc3ccccc3)c3ccccc23)o1)c1ccccc1 [Example 27, 1-Benzyl-3-(5-(N-methyl-N-phenylcarbamoyl)-2-furyl)indazole]
- melting point: 190 °C

SMILES: COc1ccc(NC(=O)c2ccc(-c3nn(Cc4ccccc4)c4ccccc34)o2)cc1 [Example 28, 1-Benzyl-3-(5-(N-(4-methoxyphenyl)carbamoyl)-2-furyl)indazole]
- melting point: 175 °C

SMILES: O=C(Nc1ccccc1O)c1ccc(-c2nn(Cc3ccccc3)c3ccccc23)o1 [Example 29, 1-Benzyl-3-(5-(N-(2-hydroxyphenyl)carbamoyl)-2-furyl)indazole]
- melting point: 196 to 197 °C

SMILES: CC(C)NC(=O)c1ccc(-c2nn(Cc3ccccc3)c3ccccc23)o1 [Example 31, 1-Benzyl-3-(5-(N-isopropylcarbamoyl)-2-furyl)indazole]
- melting point: 156 °C

SMILES: CCCNC(=O)c1ccc(-c2nn(Cc3ccccc3)c3ccccc23)o1 [Example 32, 1-Benzyl-3-(5-(N-(n-propyl)carbamoyl)-2-furyl)indazole]
- melting point: 152 °C

SMILES: O=C(NC1CCCCC1)c1ccc(-c2nn(Cc3ccccc3)c3ccccc23)o1 [Example 33, 1-Benzyl-3-(5-(N-cyclohexylcarbamoyl)-2-furyl)indazole]
- melting point: 165 °C

SMILES: O=C(NCc1ccccc1)c1ccc(-c2nn(Cc3ccccc3)c3ccccc23)o1 [Example 34, 1-Benzyl-3-(5-(N-benzylcarbamoyl)-2-furyl)indazole]
- melting point: 113 to 124 °C

SMILES: CN(C)CCNC(=O)c1ccc(-c2nn(Cc3ccccc3)c3ccccc23)o1 [Example 35, 1-Benzyl-3-(5-(N-(2-dimethylaminoethyl)carbamoyl)-2-furyl)indazole]
- melting point: 130 °C

SMILES: CC(C)N(CCNC(=O)c1ccc(-c2nn(Cc3ccccc3)c3ccccc23)o1)C(C)C [Example 36, 1-Benzyl-3-(5-(N-(2-diisopropylaminoethyl)carbamoyl)-2-furyl)indazole]
- melting point: 119 to 127 °C

SMILES: NC(=O)CNC(=O)c1ccc(-c2nn(Cc3ccccc3)c3ccccc23)o1 [Example 37, 1-Benzyl-3-(5-(N-(carbamoylmethyl)carbamoyl)-2-furyl)indazole]
- melting point: 219 to 222 °C

SMILES: O=C(NCc1ccccn1)c1ccc(-c2nn(Cc3ccccc3)c3ccccc23)o1 [Example 38, 1-Benzyl-3-(5-(N-(2-pyridylmethyl)carbamoyl)-2-furyl)indazole]
- melting point: 160 °C

SMILES: CNC(=O)c1ccc(-c2nn(Cc3ccccc3)c3ccccc23)o1 [Example 40, 1-Benzyl-3-(5-(N-methylcarbamoyl)-2-furyl)indazole]
- IC50 (rat aorta rings; Ring with endothelium): 2.4 µM
- IC50 (rat aorta rings; Ring without endothelium): 0.2 µM
- n-fold stimulation ([1]; concentration 100 μM): 2.4-fold

SMILES: OC(c1ccccc1)c1ccc(-c2nn(Cc3ccccc3)c3ccccc23)o1 (stereo not shown) [Example 43, 1-Benzyl-3-(5-(1-hydroxy-1-phenylmethyl)-2-furyl)indazole]
- melting point: 138 to 139 °C
